The target of assay [1] is T1, FAK (Mus musculus, UniProt P34152).
T1 construct: from tissue; host or cells: liver of nude mice
Kind of assay: In vivo FAK degradation in mouse livers. As to conditions: nude mice, 10 to 50 mpk intraperitoneal, three consecutive days, 4 hours after final treatment. On the procedure:
(§1) Mice were treated for three consecutive days and assessments were performed 4 hours after the third and final treatment.
(§2) PA-TU-8988T cells were implanted into the flanks of nude mice. After tumors had formed, mice were treated with indicated FAK degraders for three consecutive days via intraperitoneal administration and sacrificed 4 hours after the third and final treatment. Tumors and livers were harvested and lysed in RIPA on ice for 60 minutes and lysates were clarified by centrifugation. Immunoblotting for FAK was performed to evaluate changes in protein levels upon FAK degrader administration. All samples were run with equal total protein content and immunoblotting was performed using antibodies that detect total FAK protein as well as α-Tubulin as a loading control. Fluorescently labelled infrared secondary antibodies that enable detection using an Odyssey® CLx Imager was employed to evaluate protein levels.

The target in assay [2] is T2, FAK (Homo sapiens, UniProt Q05397). Kind of assay: FAK degradation by immunoblot in H3122 cells. Type of assay: cell-based. Also on record: endogenous in cells; host or cells: H3122. As to conditions: 10 nM to 1000 nM, 16 hours (compound 10) or 24 hours (compounds 1, 9).
T2 sequence (Q05397 whole entry): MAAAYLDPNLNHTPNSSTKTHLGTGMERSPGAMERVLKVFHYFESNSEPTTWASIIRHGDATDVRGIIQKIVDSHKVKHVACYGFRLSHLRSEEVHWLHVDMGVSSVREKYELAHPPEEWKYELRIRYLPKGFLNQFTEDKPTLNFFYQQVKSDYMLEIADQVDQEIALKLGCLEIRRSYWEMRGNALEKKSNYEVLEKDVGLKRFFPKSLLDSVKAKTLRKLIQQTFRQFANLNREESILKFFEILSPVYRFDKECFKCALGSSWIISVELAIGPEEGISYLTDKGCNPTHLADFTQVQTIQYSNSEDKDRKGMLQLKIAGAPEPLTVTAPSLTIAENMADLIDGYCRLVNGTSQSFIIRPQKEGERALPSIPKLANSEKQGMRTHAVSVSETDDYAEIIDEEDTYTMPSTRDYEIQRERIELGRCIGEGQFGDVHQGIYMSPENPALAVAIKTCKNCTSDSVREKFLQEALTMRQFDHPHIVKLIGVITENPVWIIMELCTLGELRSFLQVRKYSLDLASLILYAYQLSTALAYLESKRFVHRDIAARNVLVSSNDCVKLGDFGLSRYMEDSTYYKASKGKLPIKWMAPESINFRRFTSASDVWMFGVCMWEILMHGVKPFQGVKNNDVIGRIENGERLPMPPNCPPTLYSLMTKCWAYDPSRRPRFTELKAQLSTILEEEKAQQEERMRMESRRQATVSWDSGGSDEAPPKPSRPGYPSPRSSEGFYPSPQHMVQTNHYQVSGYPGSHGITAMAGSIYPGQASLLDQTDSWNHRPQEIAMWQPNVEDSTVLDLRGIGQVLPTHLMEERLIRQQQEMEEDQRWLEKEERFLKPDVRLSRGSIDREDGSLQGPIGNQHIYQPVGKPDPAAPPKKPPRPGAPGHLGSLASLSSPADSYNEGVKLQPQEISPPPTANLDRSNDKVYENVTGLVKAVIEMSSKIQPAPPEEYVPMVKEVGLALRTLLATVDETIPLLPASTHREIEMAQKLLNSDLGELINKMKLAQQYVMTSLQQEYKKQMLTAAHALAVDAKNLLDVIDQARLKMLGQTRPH
For assay [3], the target named is T2, FAK. Briefly: FAK degradation by immunoblot in PA-TU-8988T cells. Type of assay: cell-based. Also on record: endogenous in cells; host or cells: PA-TU-8988T. As to conditions: PA-TU-8988T cells, 4 hours; for Degradation of FAK protein (in words): 0.1 nM to 1000 nM, immunoblot; for inhibition at 0.01 µM / inhibition at 0.1 µM: PaTu 8988t, total FAK protein, vs DMSO; for inhibition at 0.01 µM: 10 nM, read-out: Degradation at 10 nM; for inhibition at 0.1 µM: 100 nM, read-out: Degradation at 100 nM. On the procedure:
(§3) Immunoblotting for FAK was performed to evaluate changes in protein levels upon FAK degrader treatment. All samples were run with equal total protein content and immunoblotting was performed using antibodies that detect total FAK protein as well as GAPDH or α-Tubulin as a loading control. Fluorescently labelled infrared secondary antibodies that enable detection using an Odyssey® CLx Imager was employed to evaluate protein levels.
FAK degraders were evaluated in immunoblot assays to determine the effective dose required to achieve FAK protein loss. Immunoblots for FAK protein were normalized relative to the loading control and percent degradation was evaluated compared to DMSO treatment.

The target in assay [4] is T2, FAK. Kind of assay: In vivo FAK degradation in PA-TU-8988T xenograft tumors. Conditions: nude mice, 10 to 50 mpk intraperitoneal, three consecutive days, 4 hours after final treatment. On the set-up: endogenous in cells; host or cells: PA-TU-8988T. On the procedure: as §1, §2
Assay [5] addresses T3, ALK (Homo sapiens, UniProt Q9UM73). Kind of assay: ALK degradation by immunoblot in H3122 cells. The format is cell-based. On the set-up: endogenous in cells; host or cells: H3122; the other entry of the earlier key: EML4 (Q9HC35, Echinoderm microtubule-associated protein-like 4). As to conditions: 10 nM to 1000 nM, 16 hours (compound 10) or 24 hours (compounds 1, 9).
Target sequence in this assay (Q9UM73 with tags, fused parts or gaps): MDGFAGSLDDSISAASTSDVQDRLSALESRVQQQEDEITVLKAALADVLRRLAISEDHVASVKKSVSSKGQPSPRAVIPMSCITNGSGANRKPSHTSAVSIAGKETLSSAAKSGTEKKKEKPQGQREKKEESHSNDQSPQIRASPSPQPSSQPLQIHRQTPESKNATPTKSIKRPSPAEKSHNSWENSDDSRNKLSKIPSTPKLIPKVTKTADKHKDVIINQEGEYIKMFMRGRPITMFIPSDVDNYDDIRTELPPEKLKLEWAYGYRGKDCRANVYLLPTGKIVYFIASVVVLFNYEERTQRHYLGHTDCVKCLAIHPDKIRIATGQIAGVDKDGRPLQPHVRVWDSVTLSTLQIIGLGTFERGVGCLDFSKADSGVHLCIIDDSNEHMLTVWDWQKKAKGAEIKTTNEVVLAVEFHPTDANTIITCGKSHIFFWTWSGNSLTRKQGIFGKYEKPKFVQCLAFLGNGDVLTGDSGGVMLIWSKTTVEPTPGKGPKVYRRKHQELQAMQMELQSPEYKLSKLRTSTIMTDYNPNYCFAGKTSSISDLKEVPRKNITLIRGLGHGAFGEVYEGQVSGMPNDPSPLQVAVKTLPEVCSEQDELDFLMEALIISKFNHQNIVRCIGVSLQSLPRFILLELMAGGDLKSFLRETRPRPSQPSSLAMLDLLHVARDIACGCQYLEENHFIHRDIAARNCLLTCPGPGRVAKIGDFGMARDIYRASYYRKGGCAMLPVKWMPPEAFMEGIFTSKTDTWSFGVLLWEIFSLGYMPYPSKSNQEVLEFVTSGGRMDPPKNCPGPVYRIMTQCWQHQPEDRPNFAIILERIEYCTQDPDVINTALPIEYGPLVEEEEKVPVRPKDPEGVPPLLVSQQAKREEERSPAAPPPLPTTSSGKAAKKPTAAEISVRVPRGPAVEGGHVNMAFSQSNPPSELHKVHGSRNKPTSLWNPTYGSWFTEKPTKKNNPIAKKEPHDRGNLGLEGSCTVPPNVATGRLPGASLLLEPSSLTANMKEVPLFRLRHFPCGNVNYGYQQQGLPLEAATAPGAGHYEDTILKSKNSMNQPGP
Target sequence in this assay (Q96SW2 whole entry partner): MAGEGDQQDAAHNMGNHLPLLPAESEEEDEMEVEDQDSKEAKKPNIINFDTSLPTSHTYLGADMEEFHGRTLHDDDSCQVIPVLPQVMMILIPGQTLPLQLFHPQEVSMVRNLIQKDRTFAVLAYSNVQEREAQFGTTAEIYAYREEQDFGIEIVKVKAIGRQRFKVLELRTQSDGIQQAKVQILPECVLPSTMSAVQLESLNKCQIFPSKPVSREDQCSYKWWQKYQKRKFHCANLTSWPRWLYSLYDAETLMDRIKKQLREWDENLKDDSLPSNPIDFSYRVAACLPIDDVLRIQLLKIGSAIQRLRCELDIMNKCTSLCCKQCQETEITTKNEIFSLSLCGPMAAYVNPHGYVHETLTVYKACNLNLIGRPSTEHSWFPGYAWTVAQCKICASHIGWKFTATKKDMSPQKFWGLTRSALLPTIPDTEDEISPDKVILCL
In assay [6] the target is T2, FAK. Kind of assay: In vitro kinase assay (Life Technologies), FAK. Conditions: ATP concentration = Km, duplicate; read-out: Biochemical IC50 FAK. On the procedure:
(§4) In vitro kinase assays with inventive compound 13 and VS-4718 were performed by Life Technologies™ in duplicate at an ATP concentration=Km for each indicated kinase. The results are summarized in Table 2 and indicate that inventive compound 13 maintained potent FAK activity, with improved activity on ALK as compared to VS-4718.

A further assay relates to kinome. Briefly: KINOMEscan competition binding assays. As to conditions: 1000 nM, compared to VS-4718. On the procedure:
KINOMEscan® competition binding assays with inventive compound 13 and VS-4718 were performed by DiscovrX at 1000 nM. […] Additionally, despite the observed activity of compound 13 on ALK, degradation of ALK with compound 9 was not observed (FIG. 6B).

The target of assay [7] is T3, ALK. Kind of assay: In vitro kinase assay (Life Technologies), ALK. On the set-up: purchased Life Technologies. Conditions: ATP concentration = Km, duplicate; read-out: Biochemical IC50 ALK. On the procedure:
as §4
Target sequence in this assay (Q9UM73 19-1620): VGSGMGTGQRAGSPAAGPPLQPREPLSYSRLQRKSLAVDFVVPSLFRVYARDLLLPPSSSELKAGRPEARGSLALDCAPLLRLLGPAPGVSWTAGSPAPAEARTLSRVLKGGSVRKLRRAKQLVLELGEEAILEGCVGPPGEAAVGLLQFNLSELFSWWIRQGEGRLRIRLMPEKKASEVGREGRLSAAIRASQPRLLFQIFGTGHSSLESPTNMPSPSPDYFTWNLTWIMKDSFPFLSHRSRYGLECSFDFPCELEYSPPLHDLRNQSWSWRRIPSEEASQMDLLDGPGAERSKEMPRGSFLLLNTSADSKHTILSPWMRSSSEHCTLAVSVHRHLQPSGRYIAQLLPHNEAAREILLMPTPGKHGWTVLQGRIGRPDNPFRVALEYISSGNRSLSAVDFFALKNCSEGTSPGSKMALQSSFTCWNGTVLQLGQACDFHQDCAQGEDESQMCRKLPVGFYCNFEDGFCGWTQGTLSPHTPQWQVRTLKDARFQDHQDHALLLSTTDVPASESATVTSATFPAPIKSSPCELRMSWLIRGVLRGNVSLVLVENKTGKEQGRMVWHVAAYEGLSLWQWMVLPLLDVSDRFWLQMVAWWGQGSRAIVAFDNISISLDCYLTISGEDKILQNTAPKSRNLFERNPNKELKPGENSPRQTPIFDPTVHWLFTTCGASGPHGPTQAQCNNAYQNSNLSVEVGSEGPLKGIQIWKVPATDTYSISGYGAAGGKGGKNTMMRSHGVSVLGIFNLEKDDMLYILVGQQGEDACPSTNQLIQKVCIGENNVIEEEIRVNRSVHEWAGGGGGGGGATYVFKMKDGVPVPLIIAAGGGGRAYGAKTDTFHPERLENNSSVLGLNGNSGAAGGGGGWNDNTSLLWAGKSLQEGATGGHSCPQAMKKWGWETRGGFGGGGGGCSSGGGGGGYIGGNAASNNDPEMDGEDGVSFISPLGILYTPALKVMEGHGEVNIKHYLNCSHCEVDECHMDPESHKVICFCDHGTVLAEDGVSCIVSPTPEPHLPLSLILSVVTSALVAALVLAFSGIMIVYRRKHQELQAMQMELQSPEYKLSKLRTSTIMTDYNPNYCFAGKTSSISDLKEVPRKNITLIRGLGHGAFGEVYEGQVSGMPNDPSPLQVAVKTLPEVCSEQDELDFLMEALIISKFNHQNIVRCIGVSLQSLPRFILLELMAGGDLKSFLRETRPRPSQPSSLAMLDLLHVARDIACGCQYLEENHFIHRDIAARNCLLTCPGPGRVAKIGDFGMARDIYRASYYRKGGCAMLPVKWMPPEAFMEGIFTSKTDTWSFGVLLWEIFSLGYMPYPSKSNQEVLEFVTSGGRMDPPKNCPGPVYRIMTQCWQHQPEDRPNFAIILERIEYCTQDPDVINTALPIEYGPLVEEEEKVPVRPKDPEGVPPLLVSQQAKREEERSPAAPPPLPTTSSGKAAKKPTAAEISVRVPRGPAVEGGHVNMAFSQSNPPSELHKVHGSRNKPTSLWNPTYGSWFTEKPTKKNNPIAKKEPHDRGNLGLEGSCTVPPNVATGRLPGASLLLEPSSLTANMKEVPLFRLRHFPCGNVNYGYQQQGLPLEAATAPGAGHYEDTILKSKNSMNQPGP

The target in assay [8] is T2, FAK. Briefly: Rescue of compound 9-induced FAK degradation in PA-TU-8988T cells after pre-treatment. On the set-up: endogenous in cells; host or cells: PA-TU-8988T. The format is cell-based. As to conditions: pre-treatment 2 hours (0.5 μM carfilzomib, 1.0 μM MLN4924, 10 μM lenalidomide, 10 μM compound 13), then 10 nM compound 9 for 4 hours. The method, then:
as §3, with “PA-TU-8988T cells were treated with FAK degraders or indicated inhibitors for four hours at the indicated doses. After four hours, PA-TU-8988T cells were lysed in radioimmunoprecipitation assay (RIPA) buffer (Thermo Scientific™) on ice for 60 minutes and lysates were clarified by centrifugation. Immunoblotting” for “Immunoblotting”

“Also recorded” adds a separate entry of the source.

The values that follow come from US12653894B2, “Degradation of FAK or FAK and ALK by conjugation of FAK and ALK inhibitors with E3 ligase ligands and methods of use” (DANA-FARBER CANCER INSTITUTE, INC., priority 2018, dated 2026).

Consider `CNC(=O)c1ccccc1Nc1cc(Nc2cc(C)c(C3CCN(CCCCCCNC(=O)COc4cccc5c4C(=O)N(C4CCC(=O)NC4=O)C5=O)CC3)cc2OC(C)C)ncc1C(F)(F)F` (centres unmarked) [Compound 9, 2-((2-((4-(1-(6-(2-((2-(2,6-dioxopiperidin-3-yl)-1,3-dioxoisoindolin-4-yl)oxy)acetamido)hexyl)piperidin-4-yl)-2-isopropoxy-5-methylphenyl)amino)-5-(trifluoromethyl)pyridin-4-yl)amino)-N-methylbenzamide], for which the “Degradation of FAK protein in mouse livers” value at FAK [1] is “pronounced degradation of FAK protein”. Also, on FAK [2], the “Degradation of FAK protein in H3122 cells (in words)” value is on record as “pronounced degradation of FAK protein”. At FAK [3], the “Degradation of FAK protein (in words)” value is “rapid and pronounced degradation of FAK protein”; the inhibition at 0.01 µM fell in the range of 85 to 100%; the inhibition at 0.1 µM lay in the range of 85 to 100%. The “Degradation of FAK protein in PA-TU-8988T xenograft tumors” value on FAK [4] is “pronounced degradation of FAK protein”. The “Degradation of ALK protein in H3122 cells (in words)” value on ALK [5] was “do not show degradation of ALK; also recorded: not observed”.
Take `CNC(=O)c1ccccc1Nc1cc(Nc2cc(C)c(C3CCNCC3)cc2OC(C)C)ncc1C(F)(F)F` [Compound 13]: the IC50 at FAK [6] came to 21 nM. Besides, in the assay with kinome, the Kinome-wide selectivity entry is “improved kinome-wide selectivity”. Further, at ALK [7], the IC50 came out at 26.3 nM. In addition, on FAK [3], the “Degradation of FAK protein (in words)” value was “did not induce degradation of FAK protein”, the inhibition at 0.01 µM was 0 to 24% and the inhibition at 0.1 µM fell in the range of 0 to 24%. Further, the “Rescue of FAK degradation induced by compound 9” value at FAK [8] is given as “rescued the degradation induced by compound 9”.
